Assay results as given in ChEMBL document CHEMBL3352127, “Synthesis of oleanolic acid derivatives: In vitro, in vivo and in silico studies for PTP-1B inhibition” (Eur J Med Chem, 2014).
One block for each compound: values may come before it. Active and inactive are the calls of the source. The calls are words filed in the database; no cut-off is given here.

Columns and labels:
[1] = molecular target: T1, Tyrosine-protein phosphatase non-receptor type 1 (Homo sapiens, UniProt P18031); experiment: Inhibition of purified human GST-tagged PTP-1B using p-nitrophenylphosphate as substrate by spectrophotometry
T1 sequence (P18031 whole entry): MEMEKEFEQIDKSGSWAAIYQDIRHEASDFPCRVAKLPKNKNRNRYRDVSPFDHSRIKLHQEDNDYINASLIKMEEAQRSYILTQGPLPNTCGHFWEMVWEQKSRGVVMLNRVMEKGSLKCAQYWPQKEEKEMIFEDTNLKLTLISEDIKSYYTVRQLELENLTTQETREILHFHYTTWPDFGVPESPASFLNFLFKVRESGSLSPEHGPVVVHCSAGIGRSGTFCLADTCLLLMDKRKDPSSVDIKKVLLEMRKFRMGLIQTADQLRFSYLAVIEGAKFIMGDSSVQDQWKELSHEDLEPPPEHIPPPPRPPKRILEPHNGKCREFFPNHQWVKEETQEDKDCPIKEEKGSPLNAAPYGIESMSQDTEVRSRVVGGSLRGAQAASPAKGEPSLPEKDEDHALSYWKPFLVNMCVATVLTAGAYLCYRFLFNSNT

[2] = molecular target: T2, Tyrosine-protein phosphatase non-receptor type 2 (Homo sapiens, UniProt P17706); experiment: Inhibition of TC-PTP (unknown origin) using p-nitrophenylphosphate as substrate by spectrophotometry
T2 sequence (P17706 whole entry): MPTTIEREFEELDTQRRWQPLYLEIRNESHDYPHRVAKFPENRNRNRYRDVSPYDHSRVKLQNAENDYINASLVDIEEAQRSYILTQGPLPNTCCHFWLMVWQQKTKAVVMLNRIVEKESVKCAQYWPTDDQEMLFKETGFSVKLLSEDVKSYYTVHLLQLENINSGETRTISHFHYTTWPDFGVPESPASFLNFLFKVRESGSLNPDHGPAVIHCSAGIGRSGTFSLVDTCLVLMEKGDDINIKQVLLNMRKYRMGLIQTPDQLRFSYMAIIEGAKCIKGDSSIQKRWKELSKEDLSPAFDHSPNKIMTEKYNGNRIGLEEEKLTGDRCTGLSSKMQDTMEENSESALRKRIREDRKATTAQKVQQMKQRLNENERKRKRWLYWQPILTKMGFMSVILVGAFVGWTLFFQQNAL

[3] = molecular target: T3, Low molecular weight phosphotyrosine protein phosphatase (Homo sapiens, UniProt P24666); experiment: Inhibition of human LMW-PTP IF1 using p-nitrophenylphosphate as substrate by spectrophotometry
T3 sequence (P24666 whole entry): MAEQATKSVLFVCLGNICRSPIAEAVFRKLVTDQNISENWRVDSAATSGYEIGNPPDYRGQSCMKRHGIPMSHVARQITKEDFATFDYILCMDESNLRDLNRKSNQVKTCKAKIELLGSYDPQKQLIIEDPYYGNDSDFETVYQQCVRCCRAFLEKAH

[4] = molecular target: T3, Low molecular weight phosphotyrosine protein phosphatase; experiment: Inhibition of human LMW-PTP IF2 using p-nitrophenylphosphate as substrate by spectrophotometry
[5] = molecular target: T1, Tyrosine-protein phosphatase non-receptor type 1; experiment: Mixed-type inhibition of purified human GST-tagged PTP-1B using p-nitrophenylphosphate as substrate by double-reciprocal plot method
[6] = test system: Rattus norvegicus; experiment: Antidiabetic activity in NIDDM Wistar rat model assessed as reduction blood glucose level at 50 mg/kg, po measured after 1 hr post dose by glucometry; type: functional, organism-based; parameters: dose 50 mg/kg
[7] = test system: Rattus norvegicus; experiment: Antidiabetic activity in NIDDM Wistar rat model assessed as reduction blood glucose level at 50 mg/kg, po measured after 3 hrs post dose by glucometry; type: functional
[8] = molecular target: T1, Tyrosine-protein phosphatase non-receptor type 1; experiment: Non-competitive inhibition of purified human GST-tagged PTP-1B using p-nitrophenylphosphate as substrate by double-reciprocal plot method

IC50 [1]: 17.8 µM
Compound: C/C=C/C(=O)O[C@H]1CC[C@]2(C)[C@H]3CC=C4[C@@H]5CC(C)(C)CC[C@]5(C(=O)O)CC[C@@]4(C)[C@]3(C)CC[C@H]2C1(C)C

IC50 [1]: 6.1 µM
IC50 [2]: 11.8 µM
IC50 [3]: 6.9 µM
IC50 [4]: 12.3 µM
Ki [5]: 2.1 µM
Compound: CC1(C)CC[C@]2(C(=O)O)CC[C@]3(C)C(=CC[C@@H]4[C@@]5(C)CC[C@H](OC(=O)/C=C/c6ccccc6)C(C)(C)[C@@H]5CC[C@]43C)[C@@H]2C1
Activity [6]: Active
Activity [7]: Active

IC50 [1]: 5.3 µM
IC50 [2]: 26 µM
IC50 [3]: 16.4 µM
IC50 [4]: 47.4 µM
Ki [8]: 4.8 µM
Compound: CCO[C@H]1CC[C@]2(C)[C@H]3CC=C4[C@@H]5CC(C)(C)CC[C@]5(C(=O)O)CC[C@@]4(C)[C@]3(C)CC[C@H]2C1(C)C
Activity [6]: inactive
Activity [7]: >20%

The remaining lines, values behind:

Compound: CCCO[C@H]1CC[C@]2(C)[C@H]3CC=C4[C@@H]5CC(C)(C)CC[C@]5(C(=O)O)CC[C@@]4(C)[C@]3(C)CC[C@H]2C1(C)C
IC50 [1]: 36.5 µM

Compound: CO[C@H]1CC[C@]2(C)[C@H]3CC=C4[C@@H]5CC(C)(C)CC[C@]5(C(=O)O)CC[C@@]4(C)[C@]3(C)CC[C@H]2C1(C)C
IC50 [1]: 8.6 µM

Compound: CC(=O)O[C@H]1CC[C@]2(C)[C@H]3CC=C4[C@@H]5CC(C)(C)CC[C@]5(C(=O)O)CC[C@@]4(C)[C@]3(C)CC[C@H]2C1(C)C [ACETYL OLEANOLIC ACID]
IC50 [1]: 21.5 µM

Compound: CC1(C)CC[C@]2(C(=O)O)CC[C@]3(C)C(=CC[C@@H]4[C@@]5(C)CC[C@H](OC(=O)c6ccccc6)C(C)(C)[C@@H]5CC[C@]43C)[C@@H]2C1
IC50 [1]: 16.2 µM
